Drawing on patent publication US11357817B2, “Immunoproteasome inhibitor” (The Regents of the University of California, priority 2017, dated 2022), this text covers IC50 and β2 activity reduced for one molecule.

For one experiment, the system named is P. falciparum Dd2. The experiment can be described thus: P. falciparum Dd2 asexual blood stage SYBR Green I compound sensitivity assay. It is filed as cell-based, Plasmodium falciparum. Particulars: Plasmodium falciparum, DD2, 72 h, asexual blood stage, 72 hour SYBR green assay. As for the experimental part:
P. falciparum Dd2 strain parasites were cultured under standard conditions (31), using RPMI media supplemented with 0.05 mg/ml gentamycin, 0.014 mg/mL hypoxanthine (prepared fresh), 38.4 mM HEPES, 0.2% Sodium Bicarbonate, 3.4 mM Sodium Hydroxide, 0.05% O+ Human Serum (Denatured at […] for 40 min and From Interstate Blood Bank, Memphis, Tenn.) and 0.0025% Albumax). Human O+ whole blood was obtained from TSRI blood bank (La Jolla, Calif.). Leukocyte-free erythrocytes are stored at 50% hematocrit in RPMI-1640 screening media (as above, but without O+ human serum and with 2× albumax concentration) at 4° C. for one to three weeks before experimental use. Cultures were monitored every one to two days via Giemsa-stained thin smears.
Compound susceptibility was measured using the malaria SYBR Green I-based fluorescence assay (32). Asynchronous P. falciparum parasites (Dd2 strain) were cultured in standard conditions before being plated for the assays. Each compound was tested over 72 hours in technical duplicates on a twelve-point concentration curve prepared by three-fold dilution from 6.7 μM to 0.11 nM. At least three independent experiments were carried out for IC50 determination. Artemisinin and chloroquine were used as controls. IC50 values were obtained using normalized fluorescence intensity from SYBR green I and analyzed via non-linear variable slope four-parameter regression curve-fitting model in Prism 6 (GraphPad Software Inc).

The next experiment deals with HepG2 cells. The experiment is described as follows: HepG2 cytotoxicity assay. The settings on record: Homo sapiens. In kind it is cell-based. Here is the method:
The liver-stage and HepG2 toxicity assays were performed as previously reported (35). Briefly, HepG2-A16-CD81EGFP, human hepatocarcinoma HepG2 cells stably transformed to express the tetraspanin CD81 receptor (36, 37) and thus susceptible to P. berghei infection, were cultured at 37° C. in 5% CO2 in DMEM (Life Technologies, Calif.) supplemented with 10% FBS, 0.29 mg/ml glutamine, 100 unit penicillin and 100 μg/ml streptomycin. For both the P. berghei-luciferase and HepG2 cytotoxicity assays, 3×10^3 of the HepG2-A16-CD81EGFP cells in 5 μl of assay medium (DMEM without Phenol Red (Life Technologies, Calif.), 5% FBS, and 5× Pen Strep Glutamine (Life Technologies, Calif.)) at concentration 6×10^5 cells/ml were seeded in 1536-well plates (Greiner BioOne white solid bottom custom GNF mold) 20-26 hours prior to the actual infection. 18 hours prior to infection, 50 nl of compound in DMSO (0.5% final DMSO concentration per well) were transferred with Acoustic Transfer System (ATS) (Biosero) into the assay plates. Atovaquone (12-point serial dilution starting at 10 μM) and Puromycin (12-point serial dilution starting at 10 μM) were used as positive controls for Pb. liver stage assay and HepG2 cytotoxicity respectively. 0.5% DMSO was used as negative control for the both assays.
An. stephensi mosquitoes, infected with P. berghei-luciferase, were provided by the New York University Insectary. P. berghei-luciferase sporozoites were freshly dissected from the infected A. stephensi mosquito salivary glands, filtered twice through a 20 μm nylon net filter using Steriflip Vacuum-Driven Filtration System (Millipore), counted in a hemocytometer, and then adjusted to final concentration 200 sporozoites per μl in the assay media. […] The HepG2-A16-CD81EGFP cell designated for toxicity studies were left uninfected, with 5 ul of additional assay media added to each well to maintain equal concentrations of compounds with P. berghei-luciferase infected plates. After incubation at 37° C. for 48 hours the exoerythrocytic growth and HepG2-A16-CD81EGFP cell viability were quantified by a bioluminescence measurement.
The HepG2 cytotoxicity was assessed by removing the media through an inverted spin of the plates at 150 g for 30 s and addition of 2 μL of CellTiterGlo reagent (Promega diluted 1:2 with deionized water) per well using the MicroFlo liquid handler (BioTek). Immediately after addition of the luminescence reagent, the plates were vortexed for 10 s and read with an EnVision Multilabel reader (PerkinElmer). IC50 values were obtained as above.

The subject of experiment [1] is 20S Plasmodium proteasome (Pf20S) β2 subunit. The experiment can be described thus: Proteasome activity assay, Pf20S β2 (z-LRR-AMC). Particulars: 450 nM compound; proteasome not named. In kind it is biochemical. As for the experimental part: Asynchronous P. falciparum cultures were grown up to 4-5% parasitemia, in 300 mL of RPMI media at 5.0% hematocrit. […] The PBS was removed and lysis buffer (0.15% saponin in PBS) was added on ice in 10 pellet volumes. Upon lysis of red blood cells, indicated by a clear red supernatant, the lysed cultures were centrifuged at 3200×g for 12 minutes at 4° C. The supernatant was removed by aspiration and the cells were washed twice using chilled PBS in microcentrifuge tubes. The cell pellets were then incubated on ice for 1 hour with occasional vortexing in a buffer consisting of 20 mM Tris-HCl pH 7.5, 5 mM MgCl2, 1 mM DTT, 100 μM E-64 and 1 mM AEBSF. This sample was then subjected to 3 rounds of freezing (−80° C.) and thawing (37° C.) and centrifugation at 6000×g for 10 min. The supernatant containing soluble P. falciparum protein was quantified by the BCA method (Pierce).
P. falciparum proteasome was enriched by two-chromatographic steps reported previously (10). […] The AMC fluorophore release was monitored at Ex 340/Em 465 nm at 24° C. using a Synergy HTX multi-mode reader (Biotek). […] Proteins were eluted using 20 mM Tris-HCl pH 7.5, 100 mM NaCl, 10% glycerol and 1 mL fractions were collected, evaluated for protease activity and pooled. […]

In the case of `CCCCCC(=O)N[C@@H](C(=O)N[C@@H](CCCC)C(=O)N[C@@H](CC(C)C)C(=O)[C@@]1(C)CO1)C(C)C` [Analog 18, (S)-2-((R)-2-hexanamido-3-methylbutanamido)-N—((S)-4-methyl-1-((R)-2-methyloxiran-2-yl)-1-oxopentan-2-yl)hexanamide], the 50% inhibitory concentration (IC50) in the experiment with P. falciparum Dd2 was 3.27 ± 0.232 nM; with HepG2 cells, 1240 ± 274 nM. Moreover, the β2 activity reduced in experiment [1] turned out to be 9%.

One may read the IC50 as the concentration needed to halve the response being measured.
